Reference: patent US20240398771A1, “TREATMENT OF SCLERODERMA AND RAYNAUD'S SYNDROME” (Aisa Pharma, Inc., priority 2023, published 2024)

Experiments:
participants with SSc-RP [1] = assay: Average daily Raynaud's Condition Score (RCS); type: in vivo, human; design: key to Average Daily RCS: Baseline, Mean / Average Daily RCS: Baseline, Median: daily RCS on VAS 0-10 cm scale; details: ITT Part A
Description: The relevant metrics measured by this tool daily are: • Study medication • SSc-RP symptoms (Reporting an attack including duration of attack) • Severity of the attack considering all symptoms of the attack e.g. tingling, numbness, pain, color changes (VAS 0-10 cm scale) • Participant's location at the time of the attack (inside home/outside home) • Selecting symptoms experienced during the attack (tingling, numbness, pain, color changes, other) • Pain rating during the attack (11-point Likert scale) • The RCS based on how much difficulty participants had with Raynaud's today, how many attacks the participant had, and how long they lasted. Participants will also be asked to consider how much pain, numbness, or other symptoms the Raynaud's caused in fingers (including painful sores), and how much the Raynaud's alone affected the use of hands today (VAS 0-10 cm scale).
The RCS is based on how much difficulty participants had with Raynaud's today, how many attacks the participant had, and how long they lasted. In addition participants were and will be asked to consider how much pain, numbness, or other symptoms the Raynaud's caused in fingers (including painful sores), and how much the Raynaud's along affected the use of hand today (VAS 0-10 cm scale).
The absolute change in average daily RCS from baseline to the end of each dosing period was and will be a secondary outcome variable. The sponsor-developed participant-informed diary has been and will be used to record data. The average daily RCS is defined as the total RCS divided by the number of days with available diary data of each dosing period. Total RCS during screening period divided by the number of days with available data will be used as baseline for the analysis of all periods. If there are multiple daily RCS scores, the latest daily RCS will be used. The variable will be calculated similar to frequency data as before.

participants with SSc-RP [2] = assay: SHAQ Visual Analog Scale - Intestinal Problems; type: in vivo, human; details: Modified ITT, Part A
Protocol: Results: Patients in the study were administered the Scleroderma Health Assessment Questionnaire (SHAQ) at the time of study entry and during clinic visits following the treatment period. The study is a two-part, parallel arm design, prospective, double-blind, randomized study conducted in Australia (Flinders Medical Center). 27 patients were randomized into the first phase of the study, following which a DSMB meeting was held, which reviewed data on the primary study endpoint and key Raynaud's secondary endpoints. Data on the SHAQ was not available for the DSMB to review. The mITT population, in which any data was available post treatment was 24 patients was the analysis population for this first part of the study. The second part (i.e., part B) of the study will randomize 36 patients in a double blind, randomized, prospective, placebo controlled, crossover study. In the first part (i.e., Part A) of the study for which data is presented, patients were randomized into 6 groups, cilnidipine at two doses (10 and 20 mg) alone and in combination with tadalafil 5 mg, tadalafil 5 mg alone, and placebo. […] The DSMB recommended that the study proceed into its double blind prospective cross overpowered second phase and compare cilnidipine 20 mg alone to placebo. […] Cilnidipine treatment may reduce patient-reported SSc disease disability compared to placebo • b. Cilnidipine treatment may reduce patient-reported SSc disease alternative disability compared to placebo • c. Cilnidipine treatment may reduce patient-reported SSc disease pain* compared to placebo • d. Cilnidipine treatment may reduce patient-reported SSc disease severity compared to placebo • e. Cilnidipine treatment may reduce patient-reported SSc disease skin ulcer severity rating compared to placebo • f Cilnidipine treatment may reduce patient-reported SSc disease breathing difficulty compared to placebo • g. […] SSc disease pain comprises not only pain from Raynaud's but joint pain, headache, odynophagia, back pain, pain from skin ulceration, and neuropathic pain). Table E includes results of the Scleroderma Health Assessment Questionnaire.

[3] = Cilnidipine 10 mg, excluding outliers
[4] = Cilnidipine 20 mg, excluding outliers
[5] = Pooled Cilnidipine 20 mg and Cilnidipine 20 mg + Tadalafil 5 mg, excluding outliers
[6] = Pooled Cilnidipine, excluding outliers

In the case of `CN1CC(=O)N2[C@H](c3ccc4c(c3)OCO4)c3[nH]c4ccccc4c3C[C@@H]2C1=O` [Tadalafil], the “Average Daily RCS: Baseline, Mean” value (participants with SSc-RP [1]; Tadalafil 5 mg) is reported as 7.72, the “Average Daily RCS: Baseline, Median” value (participants with SSc-RP [1]; Tadalafil 5 mg) is reported as 7.72 and the “Visual Analog Scale-Intestinal Problems, Baseline, Mean” value (participants with SSc-RP [2]; Tadalafil 5 mg) is reported as 0.925. The “Visual Analog Scale-Intestinal Problems, Baseline, Median” value (participants with SSc-RP [2]; Tadalafil 5 mg) was 0.950, the “Visual Analog Scale-Intestinal Problems, Change from Baseline, Mean” value (participants with SSc-RP [2]; Tadalafil 5 mg) was −0.250 and the “Visual Analog Scale-Intestinal Problems, Change from Baseline, Median” value (participants with SSc-RP [2]; Tadalafil 5 mg) was −0.150. The “Visual Analog Scale-Intestinal Problems, In Clinic Visit (Day 12), Mean” value (participants with SSc-RP [2]; Tadalafil 5 mg) was 1.175, the “Visual Analog Scale-Intestinal Problems, In Clinic Visit (Day 12), Median” value (participants with SSc-RP [2]; Tadalafil 5 mg) was 0.100 and the “Visual Analog Scale-Intestinal Problems, Percent Change from Baseline, Mean” value (participants with SSc-RP [2]; Tadalafil 5 mg) was −2.55%. The “Visual Analog Scale-Intestinal Problems, Percent Change from Baseline, Median” value (participants with SSc-RP [2]; Tadalafil 5 mg) was −88.89%.
With `COCCOC(=O)C1=C(C)NC(C)=C(C(=O)OC/C=C/c2ccccc2)C1c1cccc([N+](=O)[O-])c1` (stereo not shown) [Cilnidipine, 1,4-dihydro-2,6-dimethyl,4-(3-nitrophenyl)-3,5-pyridinedicarboxylic acid 2-methoxyethyl (2 E)-3-phenyl-2-propenyl ester] the “Average Daily RCS: Baseline, Mean” value (participants with SSc-RP [1]; [3]) was 2.74, the “Average Daily RCS: Baseline, Median” value (participants with SSc-RP [1]; [3]) was 2.74 and the “Average Daily RCS (dosing period), Mean” value (participants with SSc-RP [1]; [4]) was 2.90. The “Average Daily RCS (dosing period), Median” value (participants with SSc-RP [1]; [4]) was 2.90, the “Average Daily RCS: Baseline, Median” value (participants with SSc-RP [1]; [4]) was 3.35 and the “Average Daily RCS: Baseline, Mean” value (participants with SSc-RP [1]; Pooled Cilnidipine 10 mg and Cilnidipine 10 mg + Tadalafil 5 mg, excluding outliers) was 4.07. The “Average Daily RCS (dosing period), Mean” value (participants with SSc-RP [1]; [5]) was 3.60, the “Average Daily RCS: Baseline, Mean” value (participants with SSc-RP [1]; [5]) was 4.68 and the “Average Daily RCS: Baseline, Median” value (participants with SSc-RP [1]; [5]) was 3.74. For the same compound, the “Average Daily RCS: Baseline, Mean” value (participants with SSc-RP [1]; [6]) was 3.15, the “Average Daily RCS: Baseline, Median” value (participants with SSc-RP [1]; [6]) was 2.80 and the “Visual Analog Scale-Intestinal Problems, Baseline, Median” value (participants with SSc-RP [2]; Cilnidipine 20 mg) was 1.000.
